In patent US11512203B2, “Water-soluble azo compound or salt thereof, ink and recording medium” (Nippon Kayaku Kabushiki Kaisha, priority 2016, dated 2022):

Experiments:
Format in all cases: physicochemical
[1] = Xenon light resistance test, inks of Examples 1, 2 (Table 48); settings: xenon 100 klux, 168 hours, 24° C., 60% RH, 55% density gradation, grade of coloring matter persistence rate; for Results from light resistance tests, Glossy paper 3: ink on Brother BP71G; for Results from light resistance tests, Glossy paper 1: ink on Canon Photograph paper, platinum grade (PT-201); for Results from light resistance tests, Glossy paper 4: ink on FUJIFILM Gasai Photo-finishing Pro; for Results from light resistance tests, Glossy paper 2: ink on Seiko Epson Photograph paper Crispia
Protocol: Components shown in Table 47 below were mixed to obtain solutions, which were then subjected to precision filtration through 0.45 μm membrane filters to prepare inks of Examples 1, 2 and Comparative Examples 1, 2. The numerical values in the table are in terms of “parts,” and the symbol “-” means that that component is not included. In Table 47 below, the component […] is indicated as “remainder”.
(§1) Ink-jet recording was performed with an ink-jet printer (Canon, Inc., Product name: PIXUS ip7230) to allow each of the inks from Examples 1, 2 and Comparative Examples 1, 2 to be attached on the following glossy papers 1 to 4. Upon performing recording, image patterns were created so that the density can be obtained in a gradation of 6 levels: 100%, 85%, 70%, 55%, 40%, and 25% to obtain a half-tone recorded article. The resulting recorded article was used as a test piece to perform the following tests.
(§2) Glossy paper 1: Canon, Inc., Product name: Canon Photograph paper, platinum grade (PT-201)
(§3) Glossy paper 2: Seiko Epson Corporation, Product name: Photograph paper Crispia
(§4) Glossy paper 3: Brother Industries, Ltd., Product name: BP71G
(§5) Glossy paper 4: FUJIFILM Corporation, Product name: Gasai Photo-finishing Pro
When required, color measurements were performed for a recorded image using a colorimeter (Product name SpectroEye from X-rite, Inc.). Color measurements were performed under the conditions of a density standard of ANSI A, a wide viewing angle of 2 degrees, a light source of D50.
A test piece with a holder was placed in a xenon weatherometer XL75 (Suga Test Instruments Co., Ltd.), and irradiated for 168 hours at a temperature of 24° C., a humidity of 60% RH, and an illuminance of 100 klux. A gradation portion with a density of 55% of each test piece was subjected to color measurements of reflection densities before and after the test. A coloring matter persistence rate was computed from the reflection densities obtained, and evaluation was performed using the following 3-grade criteria.
A coloring matter persistence rate of 85% or more: A A coloring matter persistence rate of 81% or more and less than 85%: B
A coloring matter persistence rate of less than 81%: C
(Formula for Computing Coloring Matter Persistence Rate) Coloring matter persistence rate (%)=(reflection density after test/reflection density before test)×100

[2] = Xenon light resistance test, ink of Example 17 (Table 57)
Protocol: An ink of Example 17 was prepared as in Example 1 except that the compound represented by the above formula (117) was used instead of the compound represented by the above formula (101).
as §1, with “inks from Example 17 and Comparative” for “inks from Examples 1, 2 and Comparative”, “1, 2 above to be” for “1, 2 to be”, “glossy papers 1, 2. Upon performing” for “glossy papers 1 to 4. Upon performing”
as §2
Glossy paper 2: FUJIFILM Corporation, Product name: Gasai Photo-finishing Pro
When required, color measurements of a recorded image were performed using a colorimeter (Product name SpectroEye from X-rite, Inc.). Color measurements were performed under the conditions of a density standard of ANSI A, a wide viewing angle of 2 degrees, a light source of D50.
A test piece with a holder was placed in a xenon weatherometer XL75 (Suga Test Instruments Co., Ltd.), and irradiated for 168 hours at a temperature of 24° C., a humidity of 60% RH, and an illuminance of 100 klux. […]

[3] = Xenon light resistance test, ink of Example 13 (Table 54); settings: Glossy paper 1 Canon GL-101, 2 Epson Photograph paper <glossy>, 3 FUJIFILM Gasai Photo-finishing Pro
Protocol: An ink of Example 13 was prepared as in Example 1 except that the compound represented by the above formula (113) was used instead of the compound represented by the above formula (101).
as §1, with “inks from Example 13 and Comparative” for “inks from Examples 1, 2 and Comparative”, “1, 2 above to be” for “1, 2 to be”, “1 to 3. Upon performing” for “1 to 4. Upon performing”
(§6) Glossy paper 1: Canon, Inc., Product name: Canon Photograph paper, gold grade (GL-101)
Glossy paper 2: Seiko Epson Corporation, Product name: Photograph paper
Glossy paper 3: FUJIFILM Corporation, Product name: Gasai Photo-finishing Pro
(§7) When required, color measurements of a recorded image were performed using a colorimeter (Product name SpectroEye from X-rite, Inc.). Color measurements were performed under the conditions of a density standard of ANSI A, a wide viewing angle of 2 degrees, a light source of D50. […]

[4] = Xenon light resistance test, inks of Examples 10 to 12 (Table 53); settings: Glossy paper 1 Canon GL-101, 2 Epson Crispia, 3 Brother BP71G
Protocol: Inks of Examples 10 to 12 were prepared as in Example 1 except that the compounds represented by the above formulae (110) to (112) were used, respectively, instead of the compound represented by the above formula (101).
as §1, with “from Examples 10 to 12 and Comparative” for “from Examples 1, 2 and Comparative”, “1, 2 above to be” for “1, 2 to be”, “1 to 3. Upon performing” for “1 to 4. Upon performing”
as §6, §3, §4, §7

[5] = Xenon light resistance test, ink of Example 4 (Table 50); settings: for each glossy paper (Table 50)
Protocol: An ink of Example 4 was prepared as in Example 1 except that the compound represented by the above formula (104) was used instead of the compound represented by the above formula (101).
as §1, with “from Examples 4 and Comparative” for “from Examples 1, 2 and Comparative”, “1, 2 above to be” for “1, 2 to be”
as §2, §3, §4, §5
When required, color measurements of a recorded image were performed using a colorimeter (Product name SpectroEye from X-rite, Inc.). Color measurements were performed under the conditions of a density standard of DIN NB, a wide viewing angle of 2 degrees, a light source of D65. […]

[6] = Xenon light resistance test, ink of Example 16 (Table 56)
Protocol: An ink of Example 16 was prepared as in Example 1 except that the compound represented by the above formula (116) was used instead of the compound represented by the above formula (101).
as §1, with “inks from Example 16 and Comparative” for “inks from Examples 1, 2 and Comparative”, “1, 2 above to be” for “1, 2 to be”
as §2
Glossy paper 2: Canon, Inc., Product name: Canon Photograph paper, gold grade (GL-101)
Glossy paper 3: Seiko Epson Corporation, Product name: Photograph paper Crispia
Glossy paper 4: Brother Industries, Ltd., Product name: BP71G
as §7

In the case of `COc1cc(N=Nc2cccc(S(=O)(=O)O)c2)ccc1NC(=O)Nc1ccc(N=Nc2cccc(S(=O)(=O)O)c2)cc1OC` [Comparative Example 2, C.I. Direct Yellow 132], the “Results from light resistance tests, Glossy paper 3” value [1] is reported as “B (A coloring matter persistence rate of 81% or more and less than 85%)”, the “Results from light resistance tests, Glossy paper 1” value [1] is reported as “B (A coloring matter persistence rate of 81% or more and less than 85%)” and the “Results from light resistance tests, Glossy paper 4” value [1] is reported as “B (A coloring matter persistence rate of 81% or more and less than 85%)”. The “Results from light resistance tests, Glossy paper 2” value [1] was “C (A coloring matter persistence rate of less than 81%)”.

In the case of `O=S(=O)(O)CCCOc1cc(N=Nc2ccc(Cl)c(S(=O)(=O)O)c2)c(Cl)cc1Nc1nc(Nc2cc(Cl)c(N=Nc3ccc(Cl)c(S(=O)(=O)O)c3)cc2OCCCS(=O)(=O)O)nc(N2CCCC2)n1` [Example 17], the “light resistance as compared with Comparative Examples 1, 2 (conclusion)” value [2] is reported as “superior light resistance” and the “light resistance results as compared with Comparative Examples 1, 2” value [2] is reported as “good results for each glossy paper”.

For `O=S(=O)(O)CCCOc1cc(N=Nc2ccc(Cl)c(S(=O)(=O)O)c2)c(Cl)cc1Nc1nc(Nc2cc(Cl)c(N=Nc3ccc(Cl)c(S(=O)(=O)O)c3)cc2OCCCS(=O)(=O)O)nc(NC(CO)CO)n1` [Example 13], the “light resistance results as compared with Comparative Example 2” value [3] was “better results for each glossy paper”.

In the case of `CCNc1nc(Nc2cc(Cl)c(N=Nc3ccc(Cl)c(S(=O)(=O)O)c3)cc2OCCCS(=O)(=O)O)nc(Nc2cc(Cl)c(N=Nc3ccc(Cl)c(S(=O)(=O)O)c3)cc2OCCCS(=O)(=O)O)n1` [Example 10], the “light resistance results as compared with Comparative Example 2” value [4] is reported as “better results for each glossy paper”.

With `O=S(=O)(O)CCCOc1cc(N=Nc2ccc(Cl)c(S(=O)(=O)O)c2)c(Cl)cc1Nc1nc(NCCO)nc(Nc2cc(Cl)c(N=Nc3ccc(Cl)c(S(=O)(=O)O)c3)cc2OCCCS(=O)(=O)O)n1` [Comparative Example 1] the “Results from light resistance tests, Glossy paper 3” value [1] was “B (A coloring matter persistence rate of 81% or more and less than 85%)”, the “Results from light resistance tests, Glossy paper 1” value [1] was “B (A coloring matter persistence rate of 81% or more and less than 85%)” and the “Results from light resistance tests, Glossy paper 4” value [1] was “C (A coloring matter persistence rate of less than 81%)”. For the same compound, the “Results from light resistance tests, Glossy paper 2” value [1] was “B (A coloring matter persistence rate of 81% or more and less than 85%)”.

With `COCCCNc1nc(Nc2cc(Cl)c(N=Nc3ccc(Cl)c(S(=O)(=O)O)c3)cc2OCCCS(=O)(=O)O)nc(Nc2cc(Cl)c(N=Nc3ccc(Cl)c(S(=O)(=O)O)c3)cc2OCCCS(=O)(=O)O)n1` [Example 4] the “light resistance tests, results compared with Comparative Examples 1, 2” value [5] was “better results”.

With `O=S(=O)(O)CCCOc1cc(N=Nc2ccc(Cl)c(S(=O)(=O)O)c2)c(Cl)cc1Nc1nc(NCC2CCCO2)nc(Nc2cc(Cl)c(N=Nc3ccc(Cl)c(S(=O)(=O)O)c3)cc2OCCCS(=O)(=O)O)n1` (stereo not drawn) [Example 16] the “light resistance as compared with Comparative Examples 1, 2 (conclusion)” value [6] was “superior light resistance” and the “light resistance results as compared with Comparative Examples 1, 2” value [6] was “good results for each glossy paper”.
